Literature values in patent publication US9456985B2, “Sustained-released product comprising a combination of a non-opioid amine and a non-steroidal, anti-inflammatory drug” (Upsher-Smith Laboratories, Inc., priority 2009, dated 2016).
Counter-ions that a name gives are not always drawn.

Conditions: no test described

solubility (descriptive) | Compound
freely soluble | NC12CC3CC(CC(C3)C1)C2 [Amantadine hydrochloride]
soluble in water | CC12CC3CC(C)(C1)CC(N)(C3)C2 [memantine hydrochloride, Memantine hydrochloride]
